According to EP0606463B1, “NEUROMEDIN B RECEPTOR ANTAGONISTS” (The Administrators of The Tulane Educational Fund, priority 1992, dated 1994):
Like-named read-outs stand apart in the source and are kept apart here. Where a SMILES comes first, the peptide text is derived from it. Bridges are numbered along the chain shown (N, C = ends). [ ]: non-standard residue; d: D form. 2Nal = N[C@@H](Cc1ccc2ccccc2c1)C(=O)O; d2Nal = N[C@H](Cc1ccc2ccccc2c1)C(=O)O

What was measured:
mu opioid receptors = target: T1, mu opioid receptors (Rattus norvegicus, UniProt P33535); experiment: mu opioid membrane assay ([3H]DAGO, rat forebrain membranes); assay type: binding; conditions: rat forebrain membranes; concentrations up to 10 µM
T1 construct: rat forebrain (TRH, mu and delta opioid membrane assays); from tissue; host or cells: rat forebrain membranes

[1] = target: T2, somatostatin receptors on AR 42J cells (Rattus norvegicus, UniProt P30680); experiment: Somatostatin membrane receptor assay (AR 42J cell membranes); assay type: binding; conditions: AR 42J cells; concentrations up to 10 µM
T2 construct: endogenous in cells; host or cells: rat AR 42J pancreatic acinar cells (membranes)

[2] = target: T3, NMB receptors on C-6 glioblastoma cells (Rattus norvegicus, UniProt P24053); experiment: NMB-stimulated [3H]IP in C-6 glioblastoma cells; assay type: cell-based; conditions: C-6 glioblastoma cells; agonist without analog; basal 7.2±1.0
T3 construct: endogenous in cells; host or cells: rat glioblastoma C-6 cells
T3 sequence (P24053 1-390): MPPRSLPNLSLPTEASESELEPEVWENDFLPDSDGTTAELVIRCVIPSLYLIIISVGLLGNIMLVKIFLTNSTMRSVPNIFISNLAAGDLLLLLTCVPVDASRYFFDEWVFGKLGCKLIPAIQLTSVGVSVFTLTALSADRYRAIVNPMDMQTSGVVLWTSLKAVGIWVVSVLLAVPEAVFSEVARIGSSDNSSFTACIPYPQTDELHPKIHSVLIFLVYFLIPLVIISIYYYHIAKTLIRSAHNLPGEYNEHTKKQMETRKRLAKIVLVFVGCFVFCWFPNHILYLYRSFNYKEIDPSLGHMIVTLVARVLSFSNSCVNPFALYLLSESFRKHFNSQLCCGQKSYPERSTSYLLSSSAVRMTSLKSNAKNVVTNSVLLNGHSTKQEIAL
Experimental: Total phosphoinositides in C-6 cells and in NMB-R transfected cells were determined as described previously, with minor modifications [Benya, R. V. et al. Mol. Pharmacol. 42:1058 (1992); and Wang, L-H. et al. Biochem. J. 286:641 (1992)]. Cells were grown to confluence in 24-well plates and then loaded with 100 µCi/ml myo-[2-^3H]inositol in Dulbecco's modified essential medium with 2% fetal bovine serum at 37°C for 48 hrs. Cells were washed and incubated in phosphoinositide buffer (standard buffer additionally containing 10 mM LiCl, 20 mM HEPES, 2 mM CaCl2, 2% BSA, and 1.2 mM MgSO4) for 15 min and then […] Reactions were halted using ice-cold 1% HCl in methanol, and the inositol phosphates (IP) were isolated as described previously [Bologna, M. et al. Cancer 63:1714 (1989); and Endo, T. et al. J. Endocrinol. 131:313 (1991)]. Briefly, after loading of the anion exchange column, free [^3H]glycerophosphorylinositol was removed by washing with 5 mM disodium tetraborate in 60 mM sodium formate. Total [^3H]inositol phosphates were then eluted using 100 mM formic acid in 1.0 M ammonium formate as described previously [Benya, R. V. et al. Mol. Pharmacol. 42:1058 (1992); and Wang, L-H. et al. Biochem. J. 286:641 (1992)].

NMB Receptor = target: T4, NMB Receptor (Rattus norvegicus, UniProt P24053); experiment: [3H]inositol phosphates (IP) in NMB-R transfected cells; assay type: cell-based; conditions: for NMB-R Transfected Cells [^3H]IP Alone (10 µ M): analog 10 µM alone, no-additive control 13 ± 3; for NMB-R Transfected Cells [^3H]IP Plus NMB (3 nM): analog 10 µM plus NMB 3 nM, NMB without analog 186 ± 58
T4 construct: a full length NMB-preferring bombesin receptor clone generated from rat esophagus; expressed in transfected cells; host or cells: BALB 3T3 cells
T4 sequence (P24053 1-390): T3 sequence (P24053 1-390)
Experimental: As described previously [Wada, E., et al. Neuron 6:421 (1991)], BALB 3T3 cells expressing a stably transfected rat NMB receptor (NMB-R transfected cells) were obtained using calcium phosphate precipitation of a full length NMB-preferring bombesin receptor clone generated from rat esophagus and subcloned into a modified version of the pCD2 plasmid. Cells were passaged every 3-4 days at confluence, using 0.1% trypsin in 1 mM EDTA. Rat glioblastoma C-6 tumor cells were maintained similarly and were passaged weekly at confluence. Both cell lines were cultured at 37°C in a 5% CO2 atmosphere. Rat AR 42J pancreatic acinar cells were cultured in Dulbecco's modified Eagle's medium (DMEM) without antibiotics and supplemented with 10% (vol/vol) fetal calf serum. The incubation atmosphere consisted of 10% CO2-90% humidified air at 37°C.
Total phosphoinositides in C-6 cells and in NMB-R transfected cells were determined as described previously, with minor modifications [Benya, R. V. et al. Mol. Pharmacol. 42:1058 (1992); and Wang, L-H. et al. Biochem. J. 286:641 (1992)]. Cells were grown to confluence in 24-well plates and then loaded with 100 µCi/ml myo-[2-^3H]inositol in Dulbecco's modified essential medium with 2% fetal bovine serum at 37°C for 48 hrs. Cells were washed and incubated in phosphoinositide buffer (standard buffer additionally containing 10 mM LiCl, 20 mM HEPES, 2 mM CaCl2, 2% BSA, and 1.2 mM MgSO4) for 15 min and then for 60 min at 37°C with agonists at various concentrations or with 3 nM NMB (a half-maximal effective concentration) and possible antagonists at different concentrations. Reactions were halted using ice-cold 1% HCl in methanol, and the inositol phosphates (IP) were isolated as described previously [Bologna, M. et al. Cancer 63:1714 (1989); and Endo, T. et al. J. Endocrinol. 131:313 (1991)]. Briefly, after loading of the anion exchange column, free [^3H]glycerophosphorylinositol was removed by washing with 5 mM disodium tetraborate in 60 mM sodium formate. Total [^3H]inositol phosphates were then eluted using 100 mM formic acid in 1.0 M ammonium formate as described previously [Benya, R. V. et al. Mol. Pharmacol. 42:1058 (1992); and Wang, L-H. et al. Biochem. J. 286:641 (1992)].

GRP Receptor = target: T5, GRP Receptor (Rattus norvegicus, UniProt P52500); experiment: Amylase release from rat pancreatic acini; assay type: cell-based; conditions: for Rat Pancreatic Acini Amylase Release Alone (10µM): analog 10 µM alone, no-additive control 4 ± 1; for Rat Pancreatic Acini Amylase Release Plus Bn(0.3 nM): analog 10 µM plus Bn 0.3 nM, Bn without analog 15 ± 1
T5 construct: from tissue; host or cells: dispersed pancreatic acini

[3] = target: T6, NMB receptors on C-6 cells (Rattus norvegicus, UniProt P24053); experiment: Binding of 125I-[D-Tyr0]NMB to C-6 glioblastoma cells; conditions: NMB Receptor, Ki by method of Cheng, read-out: Ki(nM) ^123I-NMB Binding
T6 construct: endogenous in cells; host or cells: rat glioblastoma C-6 cells
Experimental: Binding studies using rat glioblastoma C-6 or NMB-R transfected cells were performed as described previously [Benya, R. V. et al. Mol. Pharmacol. 42:1058 (1992); and Wang, L-H. et al. Biochem. J. 286:641 (1992)] by suspending disaggregated cells in binding buffer, which was composed of standing buffer ([…], 7.7 mM KCl, 1.0 mM EGTA, 0.02% soybean trypsin inhibitor) additionally containing 50 mM HEPES, 1 mM MgCl2, 1.5 mM CaCl2, 2.2 mM KH2PO4, 0.015% glutamine, and 0.2% BSA (w\v) (pH 7.4). Incubations contained 75 pM ^125I-[D-Tyr^0]NMB and 15 x 10^6 C-6 cells/ml or 2 x 10^6 NMB-R transfected cells/ml, for 60 min at 22°C. Nonsaturable binding of ^125I-[D-Tyr^0]NMB was te amount of radioactivity associated with C-6 cells or NMB-R transfected cells when the incubation mixture contained […]. Nonsaturable binding was < 15% of total binding in all experiments; all values are reported herein as saturable binding (i.e., total minus nonsaturable binding).

rat NMB receptor = target: T7, rat NMB receptor (Rattus norvegicus, UniProt P24053); experiment: Binding of 125I-[D-Tyr0]NMB to NMB-R transfected BALB 3T3 cells; conditions: for fold by which cyclo SS-octa was more potent than the analog: inhibition of ^125I-[Tyr^0]NMB binding to NMB-R transfected cells
T7 construct: a full length NMB-preferring bombesin receptor clone generated from rat esophagus; expressed in transfected cells; host or cells: BALB 3T3 cells
T7 sequence (P24053 1-390): T3 sequence (P24053 1-390)
Experimental: Cells were passaged every 3-4 days at confluence, using 0.1% trypsin in 1 mM EDTA. Rat glioblastoma C-6 tumor cells were maintained similarly and were passaged weekly at confluence. Both cell lines were cultured at 37°C in a 5% CO2 atmosphere. Rat AR 42J pancreatic acinar cells were cultured in Dulbecco's modified Eagle's medium (DMEM) without antibiotics and supplemented with 10% (vol/vol) fetal calf serum. The incubation atmosphere consisted of 10% CO2-90% humidified air at 37°C.

[4] = target: T8, GRP receptors on rat pancreatic acini (Rattus norvegicus, UniProt P52500); experiment: Binding of 125I-[Tyr4]bombesin to pancreatic acini; conditions: read-out: Ki (nM) ^123I[Tyr^4]BnBinding
T8 construct: from tissue; host or cells: dispersed pancreatic acini
Source text: Nonsaturable binding was < 10% of total binding in all experiments.

[5] = target: T9, NMB receptors on rat olfactory bulb membranes (Rattus norvegicus, UniProt P24053); experiment: NMB membrane receptor assay (rat olfactory bulb membranes); assay type: binding; conditions: rat olfactory bulb versus AR 42J membranes (Table 4)
T9 construct: Membranes were prepared from rat olfactory bulb (NMB membrane receptor assay); from tissue; host or cells: rat olfactory bulb membranes
T9 sequence (P24053 1-390): T3 sequence (P24053 1-390)

T5 sequence (P52500 whole entry): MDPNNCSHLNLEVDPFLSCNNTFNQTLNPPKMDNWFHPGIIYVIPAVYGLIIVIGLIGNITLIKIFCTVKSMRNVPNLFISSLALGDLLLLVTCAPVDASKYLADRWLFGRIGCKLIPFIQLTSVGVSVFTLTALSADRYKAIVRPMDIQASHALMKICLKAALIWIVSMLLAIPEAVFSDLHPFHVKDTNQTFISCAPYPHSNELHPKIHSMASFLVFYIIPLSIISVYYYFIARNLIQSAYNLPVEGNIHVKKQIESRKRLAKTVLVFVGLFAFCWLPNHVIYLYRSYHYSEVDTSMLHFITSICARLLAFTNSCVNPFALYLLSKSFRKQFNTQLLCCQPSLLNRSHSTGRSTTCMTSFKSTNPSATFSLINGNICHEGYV
T1 sequence (P33535 whole entry): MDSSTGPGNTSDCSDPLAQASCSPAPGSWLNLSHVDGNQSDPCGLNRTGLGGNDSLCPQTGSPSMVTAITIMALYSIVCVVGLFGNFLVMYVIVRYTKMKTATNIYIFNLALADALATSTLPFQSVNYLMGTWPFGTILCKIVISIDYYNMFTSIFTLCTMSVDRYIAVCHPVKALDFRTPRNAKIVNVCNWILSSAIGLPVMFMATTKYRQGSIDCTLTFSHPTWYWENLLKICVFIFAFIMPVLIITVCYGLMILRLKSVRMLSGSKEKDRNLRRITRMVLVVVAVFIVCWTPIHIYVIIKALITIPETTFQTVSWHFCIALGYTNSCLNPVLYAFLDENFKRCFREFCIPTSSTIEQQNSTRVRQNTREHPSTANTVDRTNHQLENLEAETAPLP
T2 sequence (P30680 whole entry): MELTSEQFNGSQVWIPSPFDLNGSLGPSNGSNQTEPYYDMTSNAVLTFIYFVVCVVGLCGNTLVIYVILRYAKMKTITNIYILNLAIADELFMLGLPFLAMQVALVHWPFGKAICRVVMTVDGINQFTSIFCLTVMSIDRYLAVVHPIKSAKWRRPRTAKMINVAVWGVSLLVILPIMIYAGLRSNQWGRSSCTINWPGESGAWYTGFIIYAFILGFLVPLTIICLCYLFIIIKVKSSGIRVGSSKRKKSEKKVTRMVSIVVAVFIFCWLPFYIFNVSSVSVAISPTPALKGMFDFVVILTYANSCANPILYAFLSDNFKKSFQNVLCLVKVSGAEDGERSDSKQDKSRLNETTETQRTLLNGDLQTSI
T8 sequence (P52500 whole entry): as the sequence (P52500 whole entry) above

Row | Compound | inhibition of binding to mu opioid receptors (mu opioid receptors) | inhibition of binding of ^125I-[Tyr^11]SS-14 to somatostatin receptors [1] | Rat Pancreatic Acini Amylase Release Alone (10µM) (GRP Receptor) | Rat Pancreatic Acini Amylase Release Plus Bn(0.3 nM) (GRP Receptor) | fold by which cyclo SS-octa was more potent than the analog (rat NMB receptor) | NMB-R Transfected Cells [^3H]IP Alone (10 µ M) (NMB Receptor) | NMB-R Transfected Cells [^3H]IP Plus NMB (3 nM) (NMB Receptor) | also measured
1 | CSCC[C@H](NC(=O)[C@H](Cc1ccccc1)NC(=O)[C@H](Cc1c[nH]cn1)NC(=O)CNC(=O)[C@@H](NC(=O)[C@H](C)NC(=O)[C@H](Cc1c[nH]c2ccccc12)NC(=O)[C@H](CC(C)C)NC(=O)[C@H](CC(N)=O)NC(=O)CN)[C@@H](C)O)C(N)=O [NMB, neuromedin B] | Neither NMB nor GRP at concentrations up to 10 µ M inhibited binding | Neither NMB nor GRP at concentrations up to 10 µ M inhibited binding |  |  |  |  |  | [^3H]IP, NMB (10 nM) Alone [2]: 21.0 ± 1.8 dpm x 10^3; increase in [^3H]IP caused by 3 nM NMB (NMB Receptor; NMB-R transfected cells): 14 fold
2 | NCCCC[C@@H]1NC(=O)[C@@H](Cc2c[nH]c3ccccc23)NC(=O)[C@H](Cc2ccc(O)cc2)NC(=O)[C@@H](NC(=O)[C@H](N)Cc2ccc3ccccc3c2)CSSC[C@@H](C(=O)N[C@@H](Cc2ccc3ccccc3c2)C(N)=O)NC(=O)[C@H](Cc2ccc3ccccc3c2)NC1=O [Analog #3, [Nal^6]-cyclo SS-octa] (H-[d2Nal]CY[dW]K[2Nal]C[2Nal]-NH2; disulfide 2-7) |  |  | 3 ± 1 % total | 15 ± 1 % total | 4 fold | 11 ± 1 dpm x 10^3 | 65 ± 15 dpm x 10^3 | IC50 (GRP Receptor): > 10000 nM; Ki [3]: 997 ± 76 nM; Ki (rat NMB receptor; NMB Receptor, Transfected Cells, Ki by method of Cheng, read-out: Ki (nM) ^123I-NMB Binding): 697 ± 64 nM; Ki (rat NMB receptor; NMB-R transfected cells, summary of Table 1, read-out: K1): 700 to 800 nM; Ki [4]: > 10000 nM; IC50 (NMB Receptor; NMB Receptor, Transfected Cells, read-out: IC50 (nM) NMB-stimulated [^3H]IP): 2880 ± 188 nM; IC50 (NMB Receptor; NMB-R transfected cells, summary of Table 1, read-out: IC50 of NMB-stimulated increases in [^3H]IP): 3000 to 6600 nM
3 | CSCC[C@H](NC(=O)[C@H](CC(C)C)NC(=O)[C@H](Cc1c[nH]cn1)NC(=O)CNC(=O)[C@@H](NC(=O)[C@H](C)NC(=O)[C@H](Cc1c[nH]c2ccccc12)NC(=O)[C@H](Cc1c[nH]cn1)NC(=O)[C@H](CC(N)=O)NC(=O)CNC(=O)[C@H](CCCNC(=N)N)NC(=O)[C@@H]1CCCN1C(=O)[C@H](Cc1ccc(O)cc1)NC(=O)[C@H](CCSC)NC(=O)[C@H](CCCCN)NC(=O)[C@@H](NC(=O)[C@H](CC(C)C)NC(=O)[C@@H](NC(=O)[C@@H](NC(=O)CNC(=O)CNC(=O)CNC(=O)[C@H](C)NC(=O)[C@@H]1CCCN1C(=O)[C@H](CC(C)C)NC(=O)[C@@H]1CCCN1C(=O)[C@@H](N)C(C)C)[C@@H](C)O)C(C)C)[C@@H](C)O)C(C)C)C(N)=O [GRP, gastrin-releasing peptide] | Neither NMB nor GRP at concentrations up to 10 µ M inhibited binding | Neither NMB nor GRP at concentrations up to 10 µ M inhibited binding |  |  |  |  |  | 
4 | CC(C)[C@@H]1NC(=O)[C@H](Cc2c[nH]cn2)NC(=O)[C@@H](Cc2c[nH]c3ccccc23)NC(=O)[C@H](Cc2ccc(O)cc2)NC(=O)[C@@H](NC(=O)[C@H](N)Cc2ccc3ccccc3c2)CSSC[C@@H](C(=O)N[C@@H](Cc2ccc3ccccc3c2)C(N)=O)NC1=O [Analog #14, [His^5]-cyclo SS-octa] (H-[d2Nal]CY[dW]HVC[2Nal]-NH2; disulfide 2-7; N-terminus assumed) |  |  | 2 ± 1 % total | 13 ± 1 % total | 45 fold | 8 ± 1 dpm x 10^3 | 97 ± 7 dpm x 10^3 | fold higher affinity for NMB receptors than somatostatin receptors [5]: 3 fold; decrease in NMB receptor affinity compared with #1 (rat NMB receptor; structure-function comparison of Table 1 values): 50 fold
